From patent US8771944B2, “Use of micro-RNA as a biomarker of immunomodulatory drug activity” (Celgene Corporation, priority 2007, dated 2014)

How the values were obtained:
[1] = cited from earlier work
[2] = system: H929 cells; assay: Agilent miRNA array v2, lenalidomide-treated H929 cells; format: cell-based, human; settings: for miR-204 Fold Increase / miR-424 Fold Increase / miR-503 Fold Increase: H929 cells
Protocol: (§1) Additional assays were performed to determine the effects of lenalidomide (1-oxo-2-(2,6-dioxopiperidin-3-yl)-4-aminoisoindoline) administration to various cell cultures on the expression of miRNAs. The miRNAs were detected using the Agilent miRNA array v2, which contains probes for 760 human miRNAs. […] was isolated using the Qiagen miRNeasy kit, total RNA (100 ng) was dephosphorylated and ligated with pCp-Cy3. Labeled RNA was purified and hybridized to Agilent miRNA arrays.

[3] = system: Namalwa cells; assay: Agilent miRNA array v2, lenalidomide-treated Namalwa cells; format: cell-based, human; settings: for miR-143 Fold Increase / miR-145 Fold Increase: Namalwa cells
Protocol: as §1
Namalwa cells: Lenalidomide was added to Namalwa cells at a concentration of 0.1 μm, 1 μm, or 10 μm. The miRNA levels were measured at 24 and 48 hours after addition of the lenalidomide. The results with this array confirmed the upregulation of miR-143 and miR-145 in Namalwa cells in a dose-dependent response to administration of 1-oxo-2-(2,6-dioxopiperidin-3-yl)-4-aminoisoindoline (Table 2).

[4] = system: HL60 cells; assay: Agilent miRNA array v2, lenalidomide-treated HL60 cells; format: cell-based, human; settings: for miR-99b Fold Increase / miR-125a Fold Increase / miR-143 Fold Increase / miR-145 Fold Increase / miR-146b Fold Increase: HL-60 cells
Protocol: as §1
HL60 cells: The addition of lenalidomide (1-oxo-2-(2,6-dioxopiperidin-3-yl)-4-aminoisoindoline) to a cell culture from an acute myelogenous leukemia (AML) cell line (HL60) was also shown to upregulate a number of miRNAs.

[5] = system: Namalwa cells; assay: miRNA expression profile / qRT-PCR of miR-143 and miR-145 in Namalwa cells; format: cell-based; settings: 10 μM, 6 or 24 hours, FIG. 2
Protocol: An experiment similar to described above in Sections 6.1-6.5 was performed with a Namalwa lymphoma cell line model. The Namalwa Burkitt's lymphoma cell line was purchased from ATCC and grown in RPMI with 10% fetal bovine serum according to standard tissue culture methods known in the art.
Namalwa cells grown as above were treated for 6 or 24 hours with either 0.1% DMSO, 10 μM 1,3-dioxo-2-(2,6-dioxopiperidin-3-yl)-4-aminoisoindoline, or the HDAC inhibitor TSA 1 μM. Cells were harvested at indicated times and then miRNA was purified as outlined in previous sections.
miRNA expression profiles in Namalwa cells treated with immunomodulatory compounds were generated using methods similar to that described in Section 6.3.
Levels of miR-145 and miR-143 were determined using qRT-PCR. Purified miRNA was analyzed using a TaqmanR microRNA expression assay (Applied Biosystems). Five ng of purified miRNA was subjected to qRT-PCR with TaqmanR miRNA assays for miR-143 and miR-145 according to manufacturers instructions. The procedure may be achieved by using miRNA reverse transcription and PCR primers with standard buffers, reagents, and methods.

[6] = system: CD34+ hematopoietic precursor cells; assay: miRNA differential expression profiling (Ambion Bioarrays) in CD34+ cells; format: cell-based; settings: CD34+ hematopoietic precursor model
Description: A CD34^+ hematopoietic precursor cell line was utilized to examine miRNA biomarker expression upon treatment with an immunomodulatory compound. CD34^+ cells used in preclinical studies were purchased from a commercial supplier (Lonza), isolated by positive immunomagnetic selection from bone marrow. In clinical studies, CD34^+ cells can be purified by positive immunomagnetic selection or by flow cytometric immunosorting from bone marrow or peripheral blood using conventional methodologies.
CD34^+ cells were expanded for 6 days in Iscove's DMEM media (Invitrogen) with 20% BIT serum substitute (StemCell Technologies) in the presence of SCF (100 ng/ml), Flt-3 ligand (100 ng/ml), and IL-3 (20 ng/ml) and then differentiated for 6 days in Iscove's/20% BIT containing SCF (50 ng/ml) and erythropoietin (2 U/ml) in the presence of 0.1% DMSO, 1 or 10 uM the immunomodulatory compound. Cells were grown in tissue culture and treated with the immunomodulatory compound according to methods known in the art. […]
The expression array method detected two miRNAs that were regulated by administration of immunomodulatory agents in the CD34^+ hematopoietic precursor model.

[7] = system: CD34+ cells; assay: qRT-PCR of miR-130a and miR-146b in CD34+ cell cultures; format: cell-based; settings: 6 days, 1 or 10 μm
Protocol: CD34^+ cells were expanded for 6 days in Iscove's DMEM media (Invitrogen) with 20% BIT serum substitute (StemCell Technologies) in the presence of SCF (100 ng/ml), Flt-3 ligand (100 ng/ml), and IL-3 (20 ng/ml) and then differentiated for 6 days in Iscove's/20% BIT containing SCF (50 ng/ml) and erythropoietin (2 U/ml) in the presence of 0.1% DMSO, 1 or 10 uM the immunomodulatory compound. Cells were grown in tissue culture and treated with the immunomodulatory compound according to methods known in the art.
To quantitate selected miRNAs with qRT-PCR, purified miRNA was analyzed using a TaqmanR microRNA Assay (Applied Biosystems). Five ng of purified miRNA was subjected to qRT-PCR with TaqmanR miRNA assay according to manufacturers instructions. Alternatively, the procedure may be achieved by using miRNA-specific reverse transcription and PCR primers with standard buffers, reagents, and methods.
Levels of miR-130a and miR-146b were determined using qRT-PCR as described above.

[8] = 24 hour treatment, Lenalidomide 0.1 uM
[9] = 24 hour treatment, Lenalidomide 1.0 uM
[10] = 24 hour treatment, Lenalidomide 10.0 uM
[11] = 48 hour treatment, Lenalidomide 0.1 uM
[12] = 48 hour treatment, Lenalidomide 1.0 uM
[13] = 48 hour treatment, Lenalidomide 10.0 uM
[14] = H929 multiple myeloma cell line, 24 and 48 hours
[15] = Namalwa cells, 0.1, 1 or 10 μm, 24 and 48 hours, dose-dependent response
[16] = 24 hour treatment, 0.1 uM lenalidomide
[17] = 24 hour treatment, 1 uM lenalidomide
[18] = 24 hour treatment, 10 uM lenalidomide
[19] = 48 hour treatment, 0.1 uM lenalidomide
[20] = 48 hour treatment, 1 uM lenalidomide
[21] = HL60 acute myelogenous leukemia cell line
[22] = HL60 cells, dose dependent manner at both 24 and 48 hours

Nc1cccc2c1CN(C1CCC(=O)NC1=O)C2=O (stereo not drawn) [Form E, 3-(4-amino-1-oxo-1,3 dihydro-isoindol-2-yl)-piperidene-2,6-dione]
stability of polymorphic form in aqueous solvent systems [1]: most stable form

Nc1cccc2c1CN(C1CCC(=O)NC1=O)C2=O (stereo not drawn) [lenalidomide, 1-oxo-2-(2,6-dioxopiperidin-3-yl)-4-aminoisoindoline]
miR-204 Fold Increase [2, 8]: 1.75 fold | miR-424 Fold Increase [2, 8]: 1.50 fold | miR-503 Fold Increase [2, 8]: 1.61 fold | miR-204 Fold Increase [2, 9]: 2.20 fold | miR-424 Fold Increase [2, 9]: 2.08 fold | miR-503 Fold Increase [2, 9]: 2.37 fold | miR-204 Fold Increase [2, 10]: 2.00 fold | miR-424 Fold Increase [2, 10]: 2.10 fold | miR-503 Fold Increase [2, 10]: 2.44 fold | miR-204 Fold Increase [2, 11]: 2.61 fold | miR-424 Fold Increase [2, 11]: 1.71 fold | miR-503 Fold Increase [2, 11]: 1.89 fold | miR-204 Fold Increase [2, 12]: 4.30 fold | miR-424 Fold Increase [2, 12]: 3.08 fold | miR-503 Fold Increase [2, 12]: 3.80 fold | miR-204 Fold Increase [2, 13]: 4.45 fold | miR-424 Fold Increase [2, 13]: 3.36 fold | miR-503 Fold Increase [2, 13]: 4.05 fold | miR-204 expression change [2, 14]: increase in expression in a dose dependent manner | miR-424 expression change [2, 14]: increase in expression in a dose dependent manner | miR-503 expression change [2, 14]: increase in expression in a dose dependent manner | miR-143 expression change [3, 15]: upregulation | miR-145 expression change [3, 15]: upregulation | miR-143 Fold Increase [3, 16]: 2.29 fold | miR-145 Fold Increase [3, 16]: 2.34 fold | miR-143 Fold Increase [3, 17]: 3.81 fold | miR-145 Fold Increase [3, 17]: 4.16 fold | miR-143 Fold Increase [3, 18]: 4.69 fold | miR-145 Fold Increase [3, 18]: 4.96 fold | miR-143 Fold Increase [3, 19]: 2.31 fold | miR-145 Fold Increase [3, 19]: 2.53 fold | miR-143 Fold Increase [3, 20]: 4.68 fold | miR-145 Fold Increase [3, 20]: 5.12 fold | miR-143 expression change [4, 21]: upregulated | miR-145 expression change [4, 21]: upregulated | miR-99b expression change [4, 22]: upregulated | miR-125a expression change [4, 22]: upregulated | miR-146b expression change [4, 22]: upregulated | miR-99b Fold Increase [4, 8]: 1.81 fold | miR-125a Fold Increase [4, 8]: 1.56 fold | miR-143 Fold Increase [4, 8]: 1.42 fold | miR-145 Fold Increase [4, 8]: 1.33 fold | miR-146b Fold Increase [4, 8]: 2.28 fold | miR-99b Fold Increase [4, 9]: 2.37 fold | miR-125a Fold Increase [4, 9]: 1.93 fold | miR-143 Fold Increase [4, 9]: 1.56 fold | miR-145 Fold Increase [4, 9]: 1.62 fold | miR-146b Fold Increase [4, 9]: 2.99 fold | miR-99b Fold Increase [4, 10]: 2.53 fold | miR-125a Fold Increase [4, 10]: 2.04 fold | miR-143 Fold Increase [4, 10]: 1.63 fold | miR-145 Fold Increase [4, 10]: 1.77 fold | miR-146b Fold Increase [4, 10]: 3.29 fold | miR-99b Fold Increase [4, 11]: 1.99 fold | miR-125a Fold Increase [4, 11]: 1.72 fold | miR-143 Fold Increase [4, 11]: 1.96 fold | miR-145 Fold Increase [4, 11]: 1.89 fold | miR-146b Fold Increase [4, 11]: 4.38 fold | miR-99b Fold Increase [4, 12]: 2.45 fold | miR-125a Fold Increase [4, 12]: 2.05 fold | miR-143 Fold Increase [4, 12]: 2.40 fold | miR-145 Fold Increase [4, 12]: 2.27 fold | miR-146b Fold Increase [4, 12]: 7.16 fold | miR-99b Fold Increase [4, 13]: 2.69 fold | miR-125a Fold Increase [4, 13]: 2.24 fold | miR-143 Fold Increase [4, 13]: 2.25 fold | miR-145 Fold Increase [4, 13]: 2.34 fold | miR-146b Fold Increase [4, 13]: 7.07 fold

Nc1cccc2c1C(=O)N(C1CCC(=O)NC1=O)C2=O (stereo not drawn) [1,3-dioxo-2-(2,6-dioxopiperidin-3-yl)-4-aminoisoindoline]
miR-143 expression change [5]: upregulation | miR-145 expression change [5]: upregulation | miR-130a expression change (expression array) [6]: upregulated | miR-146b expression change (expression array) [6]: upregulated | miR-146b expression (qRT-PCR) compared to DMSO control ([7]; FIG. 1A): upregulation | miR-130a expression (qRT-PCR) compared to DMSO control ([7]; FIG. 1B): upregulation
